ChEMBL document CHEMBL1201862, “PubChem BioAssay data set” (2004)
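Cultured in 96-well plates, cells were exposed to test compound for 48 hours across five concentrations. GI50 is the concentration that inhibits growth by half.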 Activity calls are given as the source filed them. Rule as the data show it: active = GI50 up to about 1.1 µM and inactive = higher.

Key:
Assay in all cases: NCI anticancer screen, dose series, 48 h
K562 = tested on: K562
T47D = tested on: T47D
RXF 393 = tested on: RXF 393
PC-3 = tested on: PC-3
SN12C = tested on: SN12C
MDA-MB-435 = tested on: MDA-MB-435
Hs-578T = tested on: Hs-578T
NCI-H23 = tested on: NCI-H23
UACC-257 = tested on: UACC-257
SK-OV-3 = tested on: SK-OV-3
MOLT-4 = tested on: MOLT-4
IGROV-1 = tested on: IGROV-1
HCT-116 = tested on: HCT-116
NCI/ADR-RES = tested on: NCI/ADR-RES
SF-268 = tested on: SF-268
HCT-15 = tested on: HCT-15
NCI-H460 = tested on: NCI-H460
NCI-H522 = tested on: NCI-H522
HCC 2998 = tested on: HCC 2998

| Structure (SMILES) | GI50 (K562) | GI50 (T47D) | GI50 (RXF 393) | GI50 (PC-3) | GI50 (SN12C) | GI50 (MDA-MB-435) | GI50 (Hs-578T) | GI50 (NCI-H23) | GI50 (UACC-257) | GI50 (SK-OV-3) | GI50 (MOLT-4) | GI50 (IGROV-1) | GI50 (HCT-116) | GI50 (NCI/ADR-RES) | GI50 (SF-268) | GI50 (HCT-15) | GI50 (NCI-H460) | GI50 (NCI-H522) | GI50 (HCC 2998) |
| --- | --- | --- | --- | --- | --- | --- | --- | --- | --- | --- | --- | --- | --- | --- | --- | --- | --- | --- | --- |
| COc1cc(C2SC(C)C(=O)N2c2ccc(-c3csc(NS(=O)(=O)c4ccc(Cl)c(OC)c4)n3)cc2)ccc1O (stereo not drawn) | 34 µM (inactive) | 40.5 µM (inactive) | > 100 µM (inactive) | > 100 µM (inactive) | 20.6 µM (inactive) | > 100 µM (inactive) | 54.1 µM (inactive) | 22.6 µM (inactive) | 85.7 µM (inactive) | > 100 µM (inactive) | 25.1 µM (inactive) | 44.9 µM (inactive) | 31.8 µM (inactive) | > 100 µM (inactive) | 29.4 µM (inactive) | 33.9 µM | > 100 µM (inactive) | 21.7 µM (inactive) |  |
| Cc1ccc(S(=O)(=O)NC(=O)Nc2cccc(S(N)(=O)=O)c2)cc1 | > 100 µM (inactive) | > 100 µM (inactive) | > 100 µM (inactive) | > 100 µM (inactive) |  | > 100 µM (inactive) | > 100 µM (inactive) | > 100 µM (inactive) |  | > 100 µM (inactive) | > 100 µM (inactive) | > 100 µM (inactive) | > 100 µM (inactive) | > 100 µM (inactive) | > 100 µM (inactive) | > 100 µM | > 100 µM (inactive) | > 100 µM (inactive) | > 100 µM (inactive) |
| O=[N+]([O-])c1ccc(NN=C2CN3CCN(C2)c2ccccc23)c([N+](=O)[O-])c1 | > 100 µM (inactive) | > 100 µM (inactive) |  | > 100 µM (inactive) | > 100 µM (inactive) | > 100 µM (inactive) | > 100 µM (inactive) | > 100 µM (inactive) | > 100 µM (inactive) | > 100 µM (inactive) | > 100 µM (inactive) | 97.3 µM (inactive) | > 100 µM (inactive) | > 100 µM (inactive) | > 100 µM (inactive) | > 100 µM | > 100 µM (inactive) | > 100 µM (inactive) | > 100 µM (inactive) |
| C=CCSC1=N/C(=C\c2ccc(Cl)cc2)C(=O)N1CC=C | 29.5 µM (inactive) | 23.4 µM (inactive) | 19.8 µM (inactive) | 20 µM (inactive) | 34.3 µM (inactive) | 28.8 µM (inactive) | 68.7 µM (inactive) | 24.6 µM (inactive) | 26.4 µM (inactive) | 42.8 µM (inactive) |  | 53.8 µM (inactive) | 25.1 µM (inactive) | 34 µM (inactive) | 40.6 µM (inactive) | 28.2 µM | 43.7 µM (inactive) | 23 µM (inactive) | 34.8 µM (inactive) |
| O=C1/C(=C/c2cccc3ccccc23)CCc2ccc([N+](=O)[O-])cc21 | 7.16 µM (inactive) | 21 µM (inactive) | 23.4 µM (inactive) | 24.5 µM (inactive) | 28.4 µM (inactive) | 6.71 µM (inactive) | 9.57 µM (inactive) | 67.5 µM (inactive) |  | 21.6 µM (inactive) | > 100 µM (inactive) | 31.4 µM (inactive) | 14.5 µM (inactive) | 16.3 µM (inactive) | 33.7 µM (inactive) | 17.9 µM | 29 µM (inactive) |  | 83.8 µM (inactive) |
| COc1ccc2c(c1)-c1c(c3ccccc3n1CCN1CCOCC1)CC2 | 15.6 µM (inactive) | 21.5 µM (inactive) |  | 14.8 µM (inactive) | 28.2 µM (inactive) | 34.5 µM (inactive) | 13.5 µM (inactive) | 21.7 µM (inactive) | 36.7 µM (inactive) | 53.1 µM (inactive) | 13 µM (inactive) | 5.47 µM (inactive) | 22.4 µM (inactive) | 11.7 µM (inactive) | 19 µM (inactive) | 25.9 µM | 16.8 µM (inactive) | 15.3 µM (inactive) | 18.2 µM (inactive) |
| CCOC(=O)C1=C(C)N(CC(C)C)C2(O)C(OC)CC(=O)C3C(=O)N(c4ccccc4)C(=O)C132 (stereo not drawn) | 31.9 µM (inactive) | 47 µM (inactive) | 20.7 µM (inactive) | 34 µM (inactive) | 36 µM (inactive) | 37 µM (inactive) | 92.3 µM (inactive) | 35 µM (inactive) | 37.4 µM (inactive) |  | 15.4 µM (inactive) | 20.1 µM (inactive) | 40.5 µM (inactive) | 53.8 µM (inactive) | 60.1 µM (inactive) | 23.3 µM | 36.5 µM (inactive) | 16.5 µM (inactive) | 24.8 µM (inactive) |
| COC(=O)c1ccc(CCC2=CC(=O)C=CC2=O)cc1 | 2.37 µM (inactive) | 2.94 µM (inactive) | 12.5 µM (inactive) | 12.1 µM (inactive) | 24.5 µM (inactive) | 11.7 µM (inactive) | 24.8 µM (inactive) | 17.9 µM (inactive) | 9.08 µM (inactive) |  | 1.63 µM (inactive) | 14.6 µM (inactive) | 7.8 µM (inactive) | 20.7 µM (inactive) | 15 µM (inactive) | 5.52 µM | 19 µM (inactive) | 1.62 µM (inactive) | 16.7 µM (inactive) |
| OCC1C(O)C(O)[C@@H]2SCCN12 (stereo partly drawn) | > 100 µM (inactive) | > 100 µM (inactive) | > 100 µM (inactive) | > 100 µM (inactive) |  | > 100 µM (inactive) | > 100 µM (inactive) | > 100 µM (inactive) | > 100 µM (inactive) | > 100 µM (inactive) | > 100 µM (inactive) | > 100 µM (inactive) | > 100 µM (inactive) | > 100 µM (inactive) | > 100 µM (inactive) | > 100 µM | > 100 µM (inactive) | > 100 µM (inactive) | > 100 µM (inactive) |
| O=S(=O)(CCn1c(Sc2ccccc2)c(Sc2ccccc2)c2ccccc21)c1ccccc1 | > 100 µM (inactive) | > 100 µM (inactive) |  | > 100 µM (inactive) | > 100 µM (inactive) | > 100 µM (inactive) | 40.5 µM (inactive) | > 100 µM (inactive) |  | > 100 µM (inactive) | > 100 µM (inactive) | > 100 µM (inactive) | > 100 µM (inactive) | > 100 µM (inactive) | > 100 µM (inactive) | > 100 µM | > 100 µM (inactive) | > 100 µM (inactive) | > 100 µM (inactive) |
| N=C(CSSCC(=N)NCC12CC3CC(CC(C3)C1)C2)NCC12CC3CC(CC(C3)C1)C2 | 11.4 µM (inactive) | 17.9 µM (inactive) | > 100 µM (inactive) | 14.9 µM (inactive) | 15.7 µM (inactive) | 13.8 µM (inactive) | 23.4 µM (inactive) | 16 µM (inactive) | 14.6 µM (inactive) | 17 µM (inactive) | 3.1 µM (inactive) | 15.9 µM (inactive) | 22.4 µM (inactive) | 17.1 µM (inactive) | 37.7 µM (inactive) | 12.2 µM | 29.2 µM (inactive) | 15.1 µM (inactive) |  |
| CC1(C)CCC[C@](C)([C@H]2CC[C@]3(C)[C@@H]2[C@H](O)C[C@@H]2[C@@]4(C)CC[C@H](O)C(C)(C)[C@@H]4[C@H](O)C[C@]23C)O1 | 5.48 µM (inactive) | 10.6 µM (inactive) |  | 10.9 µM (inactive) | 14.3 µM (inactive) | 12.2 µM (inactive) | 12.9 µM (inactive) | 11.3 µM (inactive) | 13.7 µM (inactive) | 16.9 µM (inactive) | 3.78 µM (inactive) | 17.5 µM (inactive) | 15.9 µM (inactive) | 15.2 µM (inactive) | 13.8 µM (inactive) | 11.6 µM | 10.1 µM (inactive) | 12.1 µM (inactive) | 13.9 µM (inactive) |
| CCc1ccc(CCC(=O)O)nc1 | > 100 µM (inactive) | > 100 µM (inactive) | > 100 µM (inactive) | > 100 µM (inactive) | > 100 µM (inactive) | > 100 µM (inactive) | > 100 µM (inactive) | > 100 µM (inactive) | > 100 µM (inactive) | > 100 µM (inactive) |  | > 100 µM (inactive) | > 100 µM (inactive) | > 100 µM (inactive) | > 100 µM (inactive) | > 100 µM | > 100 µM (inactive) | > 100 µM (inactive) | > 100 µM (inactive) |
| COc1ccccc1C(=O)N(C)c1ccc(Cl)c(C(=O)OC(C)C)c1 |  | 23.8 µM (inactive) |  | 31.8 µM (inactive) | > 100 µM (inactive) | 29.4 µM (inactive) | > 100 µM (inactive) | 49.2 µM (inactive) | 23.1 µM (inactive) | 45.5 µM (inactive) | 39.7 µM (inactive) | > 100 µM (inactive) | 40.3 µM (inactive) | 52.1 µM (inactive) | 95.9 µM (inactive) | 39.5 µM | 42 µM (inactive) | 39.5 µM (inactive) | 27 µM (inactive) |
| c1ccc(CCN2CCCCCC2)nc1 | > 100 µM (inactive) | > 100 µM (inactive) | > 100 µM (inactive) | > 100 µM (inactive) | > 100 µM (inactive) | > 100 µM (inactive) | > 100 µM (inactive) | > 100 µM (inactive) |  | > 100 µM (inactive) | > 100 µM (inactive) | > 100 µM (inactive) | > 100 µM (inactive) | > 100 µM (inactive) | > 100 µM (inactive) | > 100 µM | > 100 µM (inactive) | > 100 µM (inactive) |  |
| Cc1ccc(Nc2c3c(c(C#N)c4nc5ccccc5n24)CCCC3)cc1 | 4.39 µM (inactive) | 13.7 µM (inactive) |  | 6.64 µM (inactive) | 17.4 µM (inactive) | 18.2 µM (inactive) | > 100 µM (inactive) | 22.4 µM (inactive) | 17.7 µM (inactive) | 38 µM (inactive) | 3.73 µM (inactive) | 28.2 µM (inactive) | 10.9 µM (inactive) | 21.3 µM (inactive) | > 100 µM (inactive) | 16.9 µM | 16.9 µM (inactive) | 14.3 µM (inactive) | 17.6 µM (inactive) |
